The values that follow are results of earlier work, collected in patent publication EP1482795B1, “NEW IMMU[…]” (CORIXA CORPORATION, priority 2002, dated 2003).

On to “Monophosphoryl lipid A [MPL® immunostimulant]”, for which the “doses that can be safely administered to humans” value is “at least 20 µg/kg”. The “dose levels at which increases in temperature, flu-like symptoms, increasing heart rate and modest decreases in blood pressure can occur” value (humans, some patients) is ≥ 0.01 mg/kg.
